The supplement of paper PMC10307832

Legend:
Test in all cases: relative viability (nuclei count vs DMSO), 5 days (fraction); higher = more cells survive
[1] = compound: CC1=C(C(=O)N2C=CSC2=N1)CCN3CCC(=C(C4=CC=CC=C4)C5=CC=C(C=C5)F)CC3 + CC(=O)Nc1cccc(-n2c(=O)n(C3CC3)c(=O)c3c(Nc4ccc(I)cc4F)n(C)c(=O)c(C)c32)c1 [Trametinib] (partner 0.02 µM)
Summary of the method: (§1)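 The day after seeding in 1536-well plates, lung cancer cell lines were treated by pin tool with a single drug, or with a fixed anchor-drug dose together with five library-drug doses (not always all listed) in √10 steps. After 5 days, a combined fix-and-stain solution (final 0.05% Triton X-100, 1% formaldehyde, 1 ug/ml Hoechst) was added. Nuclei counted on 4× images gave relative viability as treated counts over vehicle counts, reported as the median of duplicate plates.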

[2] = compound: CC1=C(C(=O)N2C=CSC2=N1)CCN3CCC(=C(C4=CC=CC=C4)C5=CC=C(C=C5)F)CC3 + CC(C)C[C@H](NC(=O)[C@H](Cc1ccccc1)NC(=O)c1cnccn1)B(O)O [Bortezomib] (partner 0.002 µM)
Summary of the method: as §1

[3] = compound: CC1=C(C(=O)N2C=CSC2=N1)CCN3CCC(=C(C4=CC=CC=C4)C5=CC=C(C=C5)F)CC3 + CS(=O)(=O)N1CCN(Cc2cc3nc(-c4cccc5[nH]ncc45)nc(N4CCOCC4)c3s2)CC1 [Pictilisib] (partner 1 µM)
Summary of the method: as §1

[4] = compound: CC1=C(C(=O)N2C=CSC2=N1)CCN3CCC(=C(C4=CC=CC=C4)C5=CC=C(C=C5)F)CC3 + O=C(c1cc(Cc2n[nH]c(=O)c3ccccc23)ccc1F)N1CCN(C(=O)C2CC2)CC1 [Olaparib] (partner 8 µM)
Summary of the method: as §1

Cell Line | relative viability ([1]; first compound 0.08 µM) | relative viability ([1]; first compound 0.253 µM) | relative viability ([1]; first compound 0.8 µM) | relative viability ([1]; first compound 2.53 µM) | relative viability ([1]; first compound 8 µM) | relative viability ([2]; first compound 0.08 µM) | relative viability ([2]; first compound 0.253 µM) | relative viability ([2]; first compound 0.8 µM) | relative viability ([2]; first compound 2.53 µM) | relative viability ([2]; first compound 8 µM) | relative viability ([3]; first compound 0.08 µM) | relative viability ([3]; first compound 0.253 µM) | relative viability ([3]; first compound 0.8 µM) | relative viability ([3]; first compound 2.53 µM) | relative viability ([3]; first compound 8 µM) | relative viability ([4]; first compound 0.08 µM) | relative viability ([4]; first compound 0.253 µM) | relative viability ([4]; first compound 0.8 µM) | relative viability ([4]; first compound 2.53 µM) | relative viability ([4]; first compound 8 µM)
LOU-NH91 | 0.776 | 0.793 | 0.794 | 0.869 | 0.679 | 0.508 | 0.507 | 0.483 | 0.481 | 0.55 | 0.561 | 0.503 | 0.545 | 0.55 | 0.527 | 0.872 | 0.845 | 0.928 | 0.946 | 0.813
LU99A | 0.584 | 0.522 | 0.586 | 0.502 | 0.353 | 1.23 | 1.11 | 1.05 | 1.14 | 0.904 | 0.377 | 0.316 | 0.342 | 0.389 | 0.311 | 0.151 | 0.244 | 0.234 | 0.254 | 0.227
LXF-289 | 0.592 | 0.67 | 0.738 | 0.634 | 0.537 | 1.08 | 1.13 | 1.05 | 0.97 | 0.933 | 0.824 | 0.953 | 0.804 | 0.674 | 0.724 | 0.987 | 1.32 | 1.07 | 1 | 0.635
NCI-H23 | 0.38 | 0.343 | 0.387 | 0.368 | 0.22 | 0.705 | 1.08 | 1.1 | 0.974 | 0.545 | 0.473 | 0.39 | 0.443 | 0.497 | 0.374 | 0.287 | 0.281 | 0.274 | 0.276 | 0.23
NCI-H322M | 0.478 | 0.424 | 0.558 | 0.604 | 0.469 | 1.3 | 1.28 | 1.24 | 1.35 | 1.09 | 0.513 | 0.526 | 0.524 | 0.526 | 0.496 | 0.74 | 0.801 | 0.678 | 0.813 | 0.738
NCI-H441 | 0.423 | 0.404 | 0.445 | 0.541 | 0.372 |  | 0.447 | 0.464 | 0.468 | 0.215 |  | 0.519 | 0.464 | 0.563 | 0.366 | 0.5 | 0.502 | 0.515 | 0.642 | 0.367
NCI-H460 | 0.129 | 0.132 | 0.129 | 0.124 | 0.129 | 0.718 | 0.799 | 1.3 |  | 0.184 | 0.326 | 0.329 | 0.329 | 0.366 | 0.209 | 0.441 | 0.361 | 0.423 | 0.409 | 0.343
NCI-H520 | 0.712 | 0.625 | 0.631 | 0.778 | 0.393 | 0.615 | 0.485 | 0.57 | 0.999 | 0.523 | 0.315 | 0.334 | 0.348 | 0.33 | 0.292 | 0.358 | 0.342 | 0.341 | 0.31 | 0.306
NCI-H596 | 0.703 | 0.815 | 0.913 | 0.863 | 0.708 | 1.09 | 1.02 | 0.903 | 0.887 | 0.989 | 0.435 | 0.418 | 0.38 | 0.369 | 0.386 | 0.67 | 0.646 | 0.677 | 0.695 | 0.708
NCI-H647 | 0.388 | 0.609 | 0.541 | 0.612 | 0.249 | 0.858 | 0.744 | 0.888 | 1.5 | 0.453 | 0.552 | 0.385 | 0.381 | 0.498 | 0.312 | 0.489 | 0.518 | 0.793 | 0.481 | 0.358
NCI-H650 | 0.997 | 0.891 | 0.986 | 1.07 | 0.932 |  | 0.696 | 0.877 | 0.817 | 0.599 |  | 0.763 | 0.786 | 0.99 | 0.71 | 0.44 | 0.363 | 0.345 | 0.412 | 0.352
NCI-H661 | 0.49 | 0.486 | 0.525 | 0.518 | 0.462 | 0.764 | 0.776 | 0.88 | 0.871 | 0.697 | 0.404 | 0.382 | 0.338 | 0.352 | 0.361 | 0.797 | 0.73 | 0.8 | 0.783 | 0.463
NCI-H727 | 0.342 | 0.365 | 0.366 | 0.397 | 0.39 | 0.802 | 1.03 | 0.997 | 0.858 | 0.633 | 0.352 | 0.351 | 0.35 | 0.354 | 0.423 | 0.86 | 0.734 | 0.667 | 0.689 | 0.599
NCI-H838 | 0.391 | 0.558 | 0.565 | 0.617 | 0.24 | 0.591 | 0.581 | 0.654 | 0.824 | 0.696 | 0.439 | 0.489 | 0.466 | 0.58 | 0.444 | 0.747 | 0.801 | 0.849 | 0.925 | 0.604
NCI-H1355 | 0.49 | 0.444 | 0.407 | 0.408 | 0.421 | 1.28 | 1.25 | 1.25 | 1.21 | 0.921 | 0.445 | 0.504 | 0.534 | 0.472 | 0.385 | 0.749 | 0.815 | 0.793 | 0.732 | 0.529
